Values quoted from earlier work, collected in paper PMC7904743, “WIDOCK: a reactive docking protocol for virtual screening of covalent inhibitors” (Journal of Computer-Aided Molecular Design, 2021).
Read-outs that look alike come from different tables or passages of the source.

Experiments:
[1] = test system: OTUB2; settings: experimental actives if % labeling higher than 50%, cited from earlier work
[2] = thiol reactivity, cited from earlier work
[3] = test system: NUDT7; settings: protein labeling at 200 μM; experimental actives if % labeling higher than 50%; cited from earlier work
[4] = natural log of average kinetic rate constant
[5] = natural log of average rate constant
[6] = natural log of average rate constant k
[7] = natural logarithm of average rate constant

Cc1ccc(NC(=O)CCl)c(F)c1 [PCM-0103028, Cc1ccc(NC(=O)CCl)c(F)c1]
OTUB2 % labeling ([1]; OTUB2 protein labeling): 14% | ln(avg k) [2, 4]: -16.314 | ln(avg k) [2, 5]: -16.314 | NUDT7 % labeling [3]: 0%

CC(NC(=O)CCl)c1cccc(Cl)c1 (stereo not shown) [PCM-0102190, CC(NC(=O)CCl)c1cccc(Cl)c1]
OTUB2 % labeling [1]: 37% | ln(avg k) [2, 6]: -16.294 | ln(avg k) [2, 7]: -16.294 | NUDT7 % labeling [3]: 42%

CC(C)N(C(=O)CCl)c1ccccc1 [PCM-0102272, CC(C)N(C(=O)CCl)c1ccccc1]
OTUB2 % labeling [1]: 0% | ln(avg k) [2, 6]: -15.780 | ln(avg k) [2, 7]: -15.780 | NUDT7 % labeling [3]: 22%

CC(NC(=O)CCl)C1CC1 (stereo not shown) [PCM-0102157, CC(NC(=O)CCl)C1CC1]
OTUB2 % labeling [1]: 10% | ln(avg k) [2, 6]: -17.112 | ln(avg k) [2, 7]: -17.112 | NUDT7 % labeling [3]: 0%

COC(=O)C1Cc2ccccc2CN1C(=O)CCl (stereo not shown) [PCM-0102841, COC(=O)C1Cc2ccccc2CN1C(=O)CCl]
OTUB2 % labeling ([1]; OTUB2 protein labeling): 41% | ln(avg k) [2, 4]: -14.128 | ln(avg k) [2, 5]: -14.128 | NUDT7 % labeling [3]: 19%

O=C(CCl)N(C1CCCCC1)C1CCS(=O)(=O)C1 (stereo not shown) [PCM-0102760, O=C(CCl)N(C1CCCCC1)C1CCS(=O)(=O)C1]
OTUB2 % labeling ([1]; OTUB2 protein labeling): 0% | ln(avg k) [2, 4]: -15.274 | ln(avg k) [2, 5]: -15.274 | NUDT7 % labeling [3]: 8%

O=C(CCl)NNC(=O)c1ccc([N+](=O)[O-])cc1 [PCM-0102885, O=C(CCl)NNC(=O)c1ccc([N+](=O)[O-])cc1]
OTUB2 % labeling ([1]; OTUB2 protein labeling): 21% | ln(avg k) [2, 4]: -16.970 | ln(avg k) [2, 5]: -16.970 | NUDT7 % labeling [3]: 0%

Cc1ccc(NC(=O)NC(=O)CCl)cc1 [PCM-0102623, Cc1ccc(NC(=O)NC(=O)CCl)cc1]
OTUB2 % labeling [1]: 0% | ln(avg k) [2, 6]: -16.273 | ln(avg k) [2, 7]: -16.273 | NUDT7 % labeling [3]: 11%

O=C(CCl)Nc1ccc(Br)cc1F [PCM-0102926, O=C(CCl)Nc1ccc(Br)cc1F]
OTUB2 % labeling ([1]; OTUB2 protein labeling): 20% | ln(avg k) [2, 4]: -16.464 | ln(avg k) [2, 5]: -16.464 | NUDT7 % labeling [3]: 17%

Cc1ccc(-c2csc(NC(=O)CCl)n2)cc1 [PCM-0102168, Cc1ccc(-c2csc(NC(=O)CCl)n2)cc1]
OTUB2 % labeling [1]: 0% | ln(avg k) [2, 6]: -15.760 | ln(avg k) [2, 7]: -15.760 | NUDT7 % labeling [3]: 40%

CS(=O)(=O)N1CCN(C(=O)CCl)CC1 [PCM-0102417, CS(=O)(=O)N1CCN(C(=O)CCl)CC1]
OTUB2 % labeling [1]: 0% | ln(avg k) [2, 6]: -15.539 | ln(avg k) [2, 7]: -15.539 | NUDT7 % labeling [3]: 0%

CC(=O)c1ccccc1NC(=O)CCl [PCM-0102282, CC(=O)c1ccccc1NC(=O)CCl]
OTUB2 % labeling [1]: 0% | ln(avg k) [2, 6]: -16.331 | ln(avg k) [2, 7]: -16.331 | NUDT7 % labeling [3]: 0%

COc1ccc(C2CCCCCN2C(=O)CCl)cc1 (stereo not shown) [PCM-0102558, COc1ccc(C2CCCCCN2C(=O)CCl)cc1]
OTUB2 % labeling [1]: 0% | ln(avg k) [2, 6]: -16.020 | ln(avg k) [2, 7]: -16.020 | NUDT7 % labeling [3]: 100%

O=C(CCl)Nc1ccc2c(c1)OC1(CCCCC1)O2 [PCM-0102104, O=C(CCl)Nc1ccc2c(c1)OC1(CCCCC1)O2]
OTUB2 % labeling [1]: 47% | ln(avg k) [2, 6]: -15.658 | ln(avg k) [2, 7]: -15.658 | NUDT7 % labeling [3]: 8%

O=C(CCl)Nc1cccnc1 [PCM-0102653, O=C(CCl)Nc1cccnc1]
OTUB2 % labeling [1]: 0% | ln(avg k) [2, 6]: -16.863 | ln(avg k) [2, 7]: -16.863 | NUDT7 % labeling [3]: 0%

CC(NC(=O)CCl)c1ccco1 (stereo not shown) [PCM-0102798, CC(NC(=O)CCl)c1ccco1]
OTUB2 % labeling ([1]; OTUB2 protein labeling): 19% | ln(avg k) [2, 4]: -16.737 | ln(avg k) [2, 5]: -16.737 | NUDT7 % labeling [3]: 14%

CC(NC(=O)CCl)c1ccc2c(c1)CC(=O)N2 (stereo not shown) [PCM-0102816, CC(NC(=O)CCl)c1ccc2c(c1)CC(=O)N2]
OTUB2 % labeling ([1]; OTUB2 protein labeling): 29% | ln(avg k) [2, 4]: -16.367 | ln(avg k) [2, 5]: -16.367 | NUDT7 % labeling [3]: 22%

Cc1cccc(NC(=O)CCl)c1 [PCM-0102116, Cc1cccc(NC(=O)CCl)c1]
OTUB2 % labeling [1]: 11% | ln(avg k) [2, 6]: -15.855 | ln(avg k) [2, 7]: -15.855 | NUDT7 % labeling [3]: 0%

Cc1nn(-c2ccccc2)c(C)c1NC(=O)CCl [PCM-0102501, Cc1nn(-c2ccccc2)c(C)c1NC(=O)CCl]
OTUB2 % labeling [1]: 9% | ln(avg k) [2, 6]: -16.489 | ln(avg k) [2, 7]: -16.489 | NUDT7 % labeling [3]: 9%

Cc1cc(Br)ccc1NC(=O)CCl [PCM-0102799, Cc1cc(Br)ccc1NC(=O)CCl]
OTUB2 % labeling ([1]; OTUB2 protein labeling): 61% | ln(avg k) [2, 4]: -16.305 | ln(avg k) [2, 5]: -16.305 | NUDT7 % labeling [3]: 24%

Cc1cc(NC(=O)CCl)ccc1N1CCCC1 [PCM-0102175, Cc1cc(NC(=O)CCl)ccc1N1CCCC1]
OTUB2 % labeling [1]: 39% | ln(avg k) [2, 6]: -15.490 | ln(avg k) [2, 7]: -15.490 | NUDT7 % labeling [3]: 13%

O=C(CCl)NC1CCCC(C(F)(F)F)C1 (stereo not shown) [PCM-0102862, O=C(CCl)NC1CCCC(C(F)(F)F)C1]
OTUB2 % labeling ([1]; OTUB2 protein labeling): 14% | ln(avg k) [2, 4]: -16.578 | ln(avg k) [2, 5]: -16.578 | NUDT7 % labeling [3]: 0%

O=C(CCl)Nc1ccc(-c2nnc3n2CCCCC3)cc1 [PCM-0102101, O=C(CCl)Nc1ccc(-c2nnc3n2CCCCC3)cc1]
OTUB2 % labeling [1]: 28% | ln(avg k) [2, 6]: -15.815 | ln(avg k) [2, 7]: -15.815 | NUDT7 % labeling [3]: 0%

O=C(CCl)N1CCCCCC1 [PCM-0102751, O=C(CCl)N1CCCCCC1]
OTUB2 % labeling ([1]; OTUB2 protein labeling): 0% | ln(avg k) [2, 4]: -16.327 | ln(avg k) [2, 5]: -16.327 | NUDT7 % labeling [3]: 0%

O=C(CCl)NC(=O)NC12CC3CC(CC(C3)C1)C2 [PCM-0102360, O=C(CCl)NC(=O)NC12CC3CC(CC(C3)C1)C2]
OTUB2 % labeling [1]: 12% | ln(avg k) [2, 6]: -16.068 | ln(avg k) [2, 7]: -16.068 | NUDT7 % labeling [3]: 0%

CC(c1nc2ccccc2s1)N(C)C(=O)CCl (stereo not shown) [PCM-0102793, CC(c1nc2ccccc2s1)N(C)C(=O)CCl]
OTUB2 % labeling ([1]; OTUB2 protein labeling): 19% | ln(avg k) [2, 4]: -15.755 | ln(avg k) [2, 5]: -15.755 | NUDT7 % labeling [3]: 0%

Cc1ccc(N(C(=O)CCl)C2C=CS(=O)(=O)C2)cc1C (stereo not shown) [PCM-0103082, Cc1ccc(N(C(=O)CCl)C2C=CS(=O)(=O)C2)cc1C]
OTUB2 % labeling ([1]; OTUB2 protein labeling): 0% | ln(avg k) [2, 4]: -15.512 | ln(avg k) [2, 5]: -15.512 | NUDT7 % labeling [3]: 15%

O=C(CCl)Nc1cc([N+](=O)[O-])ccc1F [PCM-0102544, O=C(CCl)Nc1cc([N+](=O)[O-])ccc1F]
OTUB2 % labeling [1]: 31% | ln(avg k) [2, 6]: -15.793 | ln(avg k) [2, 7]: -15.793 | NUDT7 % labeling [3]: 0%

CC1CCc2c(sc(NC(=O)CCl)c2C#N)C1 (stereo not shown) [PCM-0102420, CC1CCc2c(sc(NC(=O)CCl)c2C#N)C1]
OTUB2 % labeling [1]: 0% | ln(avg k) [2, 6]: -16.452 | ln(avg k) [2, 7]: -16.452 | NUDT7 % labeling [3]: 47%

COc1ccc(NC(=O)CCl)cc1Cl [PCM-0102652, COc1ccc(NC(=O)CCl)cc1Cl]
OTUB2 % labeling [1]: 24% | ln(avg k) [2, 6]: -15.680 | ln(avg k) [2, 7]: -15.680 | NUDT7 % labeling [3]: 12%

NC(=O)c1ccsc1NC(=O)CCl [PCM-0102314, NC(=O)c1ccsc1NC(=O)CCl]
OTUB2 % labeling [1]: 0% | ln(avg k) [2, 6]: -15.717 | ln(avg k) [2, 7]: -15.717 | NUDT7 % labeling [3]: 18%

O=C(NC1CCN(C(=O)CCl)CC1)c1ccccc1 [PCM-0102575, O=C(NC1CCN(C(=O)CCl)CC1)c1ccccc1]
OTUB2 % labeling [1]: 9% | ln(avg k) [2, 6]: -15.398 | ln(avg k) [2, 7]: -15.398 | NUDT7 % labeling [3]: 9%

O=C(CCl)NCc1ccccn1 [PCM-0102950, O=C(CCl)NCc1ccccn1]
OTUB2 % labeling ([1]; OTUB2 protein labeling): 0% | ln(avg k) [2, 4]: -17.514 | ln(avg k) [2, 5]: -17.514 | NUDT7 % labeling [3]: 0%

Cc1cc(C)c(NC(=O)CCl)c(Cl)c1 [PCM-0102994, Cc1cc(C)c(NC(=O)CCl)c(Cl)c1]
OTUB2 % labeling ([1]; OTUB2 protein labeling): 0% | ln(avg k) [2, 4]: -16.989 | ln(avg k) [2, 5]: -16.989 | NUDT7 % labeling [3]: 26%

CC(NC(=O)CCl)c1ccccc1 (stereo not shown) [PCM-0102128, CC(NC(=O)CCl)c1ccccc1]
OTUB2 % labeling [1]: 42% | ln(avg k) [2, 6]: -16.398 | ln(avg k) [2, 7]: -16.398 | NUDT7 % labeling [3]: 13%

Cc1nn(C)c(C)c1NC(=O)CCl [PCM-0102949, Cc1nn(C)c(C)c1NC(=O)CCl]
OTUB2 % labeling ([1]; OTUB2 protein labeling): 0% | ln(avg k) [2, 4]: -16.344 | ln(avg k) [2, 5]: -16.344 | NUDT7 % labeling [3]: 0%

O=C(CCl)N1CCCC1c1ccc2c(c1)OCCO2 (stereo not shown) [PCM-0102298, O=C(CCl)N1CCCC1c1ccc2c(c1)OCCO2]
OTUB2 % labeling [1]: 0% | ln(avg k) [2, 6]: -15.407 | ln(avg k) [2, 7]: -15.407 | NUDT7 % labeling [3]: 100%

N#Cc1cccc(NC(=O)CCl)c1 [PCM-0103033, N#Cc1cccc(NC(=O)CCl)c1]
OTUB2 % labeling ([1]; OTUB2 protein labeling): 23% | ln(avg k) [2, 4]: -15.647 | ln(avg k) [2, 5]: -15.647 | NUDT7 % labeling [3]: 0%

Cc1ccc(NC(=O)CCl)cc1Br [PCM-0102955, Cc1ccc(NC(=O)CCl)cc1Br]
OTUB2 % labeling ([1]; OTUB2 protein labeling): 14% | ln(avg k) [2, 4]: -16.336 | ln(avg k) [2, 5]: -16.336 | NUDT7 % labeling [3]: 27%

CCCNC(=O)NC(=O)CCl [PCM-0102702, CCCNC(=O)NC(=O)CCl]
OTUB2 % labeling [1]: 22% | ln(avg k) [2, 6]: -16.357 | ln(avg k) [2, 7]: -16.357 | NUDT7 % labeling [3]: 0%

O=C(CCl)NCC1CCC1 [PCM-0103065, O=C(CCl)NCC1CCC1]
OTUB2 % labeling ([1]; OTUB2 protein labeling): 0% | ln(avg k) [2, 4]: -17.462 | ln(avg k) [2, 5]: -17.462 | NUDT7 % labeling [3]: 0%

CN(Cc1cnn(C)c1)C(=O)CCl [PCM-0102899, CN(Cc1cnn(C)c1)C(=O)CCl]
OTUB2 % labeling ([1]; OTUB2 protein labeling): 26% | ln(avg k) [2, 4]: -15.596 | ln(avg k) [2, 5]: -15.596 | NUDT7 % labeling [3]: 8%

CN(C(=O)CCl)C1=CCCC1 [PCM-0102869, CN(C(=O)CCl)C1=CCCC1]
OTUB2 % labeling ([1]; OTUB2 protein labeling): 0% | ln(avg k) [2, 4]: -17.213 | ln(avg k) [2, 5]: -17.213 | NUDT7 % labeling [3]: 0%
